We go through five compounds from patent US20130045162A1, “DELIVERY SYSTEM FOR SPECIFICALLY TARGETING CANCER CELLS AND METHOD OF USE THEREOF” (MOREHOUSE SCHOOL OF MEDICINE, priority 2011, published 2013).

The target in one data set is FR1 (Homo sapiens, UniProt P15328). Particulars: read-out: affinity for FR1; cited from earlier work.
A further data set addresses FR2 (Homo sapiens, UniProt P14207). The settings on record: read-out: affinity for FR2; cited from earlier work.
Data set [1] relates to BrCa cells (MCF-7, MDA-MB-231, and 4T1). As to the kind of experiment: BrCa cell death / apoptosis in culture. Type of data set: cell-based. Particulars: 20 μM, after 24 hr of culture. An excerpt: (§1) The folate coated PBM nanoparticles are further loaded with docetaxel, carboplatin, or cisplatin. […] However, PBM nanoparticles containing 10× less chemotherapeutic agent were taken up and induced the same level of BrCa cell apoptosis as cisplatin, docetaxel, or carboplatin solution, respectively, but not primary breast epithelial cells. […] Accordingly, the novel PBM nanoparticles of the present application enhance BrCa therapy efficacy, reduce toxicities, and increase breast tumor immunity.

For data set [2], the system named is normal (primary) breast epithelial cells. As to the kind of experiment: normal breast epithelial cell death / apoptosis in culture. Type of data set: cell-based. The settings on record: 20 μM, after 24 hr of culture.
From the text: as §1

Data set [3] has as its system MDA-MB-231-Luc xenografts. As to the kind of experiment: tumor regression in MDA-MB-231-luc tumor-bearing mice. Type of data set: in vivo. Particulars: 8 mg/kg/week, intravenous injection.
Data set [4] has as its system PCa cells (PC3 and PTEN-CaP2). As to the kind of experiment: PCa cell death / apoptosis in vitro. Type of data set: cell-based, human; mouse. Particulars: 20 μM.
For data set [5], the system named is normal prostatic epithelial cells (PrEC and RWPE-1). As to the kind of experiment: normal prostatic epithelial cell death in vitro. It is filed as cell-based. Particulars: 20 μM.
A further data set deals with PC3-luc tumor. Put plainly: tumor regression in PC3-luc tumor-bearing mice. It is filed as in vivo. The settings on record: 8 mg/kg/week, intravenous injection.
On the set-up of data set [6]: species or system mice. The settings on record: mouse, in vivo.
Protocol: Serum is collected at sacrifice and urea N2, creatine, P, Ca, Na, K, Cl, bicarbonate, alkaline phosphatase, alanine transaminase (ALT), aspartate aminotransferase (AST), creatine kinase (CK), cholesterol, total bilirubin, total protein, albumin, globulin, albumin/globulin ratio, glucose and amylase are measured.
Data set [7] deals with DU145 (prostate cancer cell line). Put plainly: DU145 apoptosis, ImageStream (TUNEL/DRAQ5). It is filed as cell-based. Particulars: 20 uM, 1 hour, wash, 48 hours. On the procedure:
(§2) DU145 (prostate cancer cell line) and PrEC (primary prostatic epithelial cells) cells were treated with cisplatin solution or cisplatin-containing and cancer cell-binding peptides (I, II, III, and IV)- or folate-conjugated polycaprolactone-coated PBM nanoparticles, or uncoated nanoparticles. […] Apoptotic cells were identified using two standard image based features from the IDEAS package: Area and Spot Small Total. Condensed apoptotic nuclei have lower nuclear area value as compared to live cells.

The subject of data set [8] is PrEC (primary prostatic epithelial cells). As to the kind of experiment: PrEC apoptosis, ImageStream (TUNEL/DRAQ5). It is filed as cell-based. The settings on record: 20 uM, 1 hour, wash, 48 hours. On the procedure:
as §2

The conditions of data set [9]: cited from earlier work.
In data set [10] the test system is PC3-luc and PTEN-CaP2-luc tumor. Put plainly: Example 5 intratibia PC3-luc / PTEN-CaP2-luc tumor model. It is filed as in vivo, mice. Particulars: intravenous. On the procedure: To mimic advanced (bone metastasis) PCa, NIH-III or B6 male mice receiving vitamin D-deficient or normal diets are injected in left tibia with PC3-luc or PTEN-CaP2-luc cells, respectively. […] Microscopic and morphometric analysis determine the significance of treatments on prostate tumor apoptosis and change in the frequency or survival of PCa cells. […] Blood samples are used to determine serum docetaxel and oxaliplatin PK/PD by mass spectrometry.
NIH-III and B6 male mice are purchased from Jackson Laboratories. Animals are housed and maintained in microbial isolator cages under conventional housing conditions at the Morehouse School of Medicine's animal facility. The guidelines proposed by the committee for the Care of Laboratory Animal Resources Commission of Life Sciences—National Research Council are followed to minimize animal pain and distress. Eight to ten week old mice are injected in the right tibia with 10^6 PTEN-P2-luc (matched benign), PTEN-CaP2-luc (prostate adenocarcinoma), or PC3-luc cells. To assess the affects of hormone ablation on cytotoxic drug or PBM nanoparticle susceptibility, another group of mice is castrated after prostate tumor detection.

The test system of data set [11] is spontaneous PCa in PBcre4+cPten−/− luc+ and PBcre4+cPten−/− luc+ cav1+ mice. Put plainly: Example 6 spontaneous prostate tumor model (cPten−/− luc mice). It is filed as in vivo. Particulars: for metastatic lesions: alone or encapsulated. An excerpt:
PBM nanoparticle effects on spontaneous tumor and Treg cell development are examined using cPten^−/−PBcre4^+luc^+ or cPten^−/−PBcre4^+luc^+cav1^+ (castrated or noncastrated) mice. Pten^floxed/floxedluc^+ without the Cre gene, which serve as negative tumor controls, and male cPten^−/− PBcre4^+luc^+ or cPten^−/−PBcre4^+luc^+cav1^+ (castrated or noncastrated) mice are imaged every week during PCa development from murine PIN (6 weeks of age), invasive adenocarcinoma (>9 weeks of age), and metastatic lymph node, lung and possibly bone at 12 weeks of age. After 9 weeks of age, tumors are allowed to progress to a net increase of 10^5 photons/sec/cm^2 from luminescence detected in mice <9 weeks of age. A set of mice is castrated to study androgen-independent hormone refractory PCa and another set is not castrated to further study the progression of PTEN-mediated PCa with androgens. […] Microscopic and morphometric analysis determine the significance of treatments on prostate tumor apoptosis and change in the frequency or survival of secretory luminal, basal, neuroendocrine and proliferating PCa cells. […] The proliferation of purified T lymphocytes is measured after CD3 plus CD28 stimulation (i.e., incubation on antibody-coated plates) with or without FR4 to assess Th1/Th2 cell proliferation. […]
Despite being homozygous for Pten gene deletion, the individual PBcre4^+ cPten^−/− luc^+ and PBcre4^+ cPten^−/− luc^+ cav1^+ mice will have different copies of active luciferase (L) gene. The copy number of trans L genes are determined and confirmed by multiplex polymerase chain reaction amplification and Southern blot analysis to insure the number of L genes responsible for luciferase will not change from experiment to experiment. […]

Another data set deals with PTEN-CaP2-luc tumor. As to the kind of experiment: Example 7 PTEN-CaP2-luc tumor in B6 and B6.Xpc−/− mice. It is filed as in vivo.
The conditions of data set [12]: mouse, in vivo.
Protocol: (§3) To mimic advanced (bone metastasis) PCa in ERCC1 variant individuals, B6 and B6.Xpc^−/− mice are injected in left tibia PTEN-CaP2-luc cells. Tumor progression is followed non-invasively in non-castrated mice using our Caliper/Xenogen IVIS-100 imaging system. After tumors emit luminescence >10^5 photons/sec/cm^2, one set of mice is castrated (i.e., to mimic androgen ablation) and the second set is not. […] Mice are imaged every week to monitor tumor progression/regression. When tumors in negative control (saline vehicle treated only) exceed 10^8 photons/sec/cm^2, groups in each set are sacrificed. […] The number and activity of peripheral, lymph node and tumor-associated lymphocytes are isolated and CD4^+ T cells affinity purified and intracellularly and surface stained for flow cytometry analysis of Th1, Th2, Th17, and cell frequency as before. Specifically, the proliferation of purified T lymphocytes after CD3 plus CD28 stimulation with or without FR4 to access Th1/Th2 cell proliferation as before. Along with weekly bioluminescence imaging, blood chemistry and peripherial blood leukocyte subpopulations are monitored to evaluate tumor- or drug-associated toxicities that may be associated with Xpc deficiency.
Data set [13] in a line: Example 7 systemic toxicities in B6 and B6.Xpc−/− mice. The settings on record: B6.Xpc−/− mice compared to B6 mice.
Protocol: as §3
Where [14] appears, read: optimal dose 10 mg/kg/week, both B6 and B6.Xpc−/− mice.

Like-named read-outs stand apart in the source and are kept apart here.

Chain of FR2 (P14207 17-230): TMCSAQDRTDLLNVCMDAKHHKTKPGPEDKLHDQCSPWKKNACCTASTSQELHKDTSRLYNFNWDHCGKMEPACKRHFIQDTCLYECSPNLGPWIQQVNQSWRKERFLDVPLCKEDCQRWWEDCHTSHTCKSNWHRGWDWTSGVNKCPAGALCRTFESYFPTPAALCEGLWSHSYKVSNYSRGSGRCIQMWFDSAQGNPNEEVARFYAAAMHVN
Chain of FR1 (P15328 25-234): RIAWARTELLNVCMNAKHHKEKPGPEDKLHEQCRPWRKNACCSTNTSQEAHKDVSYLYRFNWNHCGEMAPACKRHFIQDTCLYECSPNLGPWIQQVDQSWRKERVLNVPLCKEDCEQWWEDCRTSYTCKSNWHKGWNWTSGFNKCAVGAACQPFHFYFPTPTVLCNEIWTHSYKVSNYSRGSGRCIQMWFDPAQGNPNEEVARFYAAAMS

On to `CN1c2c(nc(N)[nH]c2=O)NC[C@@H]1CNc1ccc(C(=O)N[C@@H](CCC(=O)O)C(=O)O)cc1` [6S 5-methyltetrahydrofolate], for which the Kd on FR1 is 55 nM; at FR2 it was 1 nM.

As to `[NH2][Pt]([NH2])([Cl])[Cl]` [Cisplatin solution, cisplatin], the cell death in data set [1] is listed as greater than 90%. The cell death in data set [2] is reported as greater than 90%. Moreover, in data set [3], the tumor regression result is on record as “significant (and similar) tumor regression”. The cell death in data set [4] was greater than 90%. The compound further displayed a cell death in [5] greater than 90%. Further, the tumor regression result with PC3-luc tumor is “significant (and similar) tumor regression”. In addition, in [6], the Albumin is 4.2 ± 0.6 g/dL, the Albumin/Globulin ratio is on record as 4.22 ± 2.41, the “Alk Phos” value worked out at 160 ± 34.64 U/L and the Amylase is given as 2062 ± 371.44 U/L. In data set [6], the Bicarbonate is 10.2 ± 1.04 mmol/fL, the CK is 3975 ± 45 U/L, the Calcium turned out to be 1.2 ± 0 mg/dL and the Cholestrol was determined as 84 ± 10.39 mg/dL. In [6], this compound had a Cl of 106 ± 3.46 mEq/l, a Creatinin of 0.8 ± 0.35 mg/dL, a Globulins of 1.2 ± 0.6 g/dL and a Glucose of 52 ± 17.32 mg/dL. In addition, in [6], the K was 9.2 ± 012 mEg/l, the Na was found to be 152 ± 3.46 mEq/l, the Phosphorus is 72 ± 0 mg/dL and the “Total Bilirubin” value came to 0.6 ± 0 mg/dL. In [6], the Total protein came to 5 ± 0.35 g/dL and the “Urea N2” value was found to be 36 ± 0 mg/dL. Also, the “apoptosis of DU145 cells” value in data set [7] is “apoptosis of both DU145 and PrEC cells”. For the same compound, in data set [8], the “apoptosis of PrEC cells” value is “apoptosis of both DU145 and PrEC cells”.

Regarding `COc1cc(/C=C/C(=O)CC(=O)/C=C/c2ccc(O)c(OC)c2)ccc1O` [Free curcumin, diferuloylmethane], the solubility in water result in [9] is reported as “completely insoluble in water”.

Take `CC(=O)O[C@@]12CO[C@@H]1C[C@H](O)[C@@]1(C)C(=O)[C@H](O)C3=C(C)[C@@H](OC(=O)[C@H](O)[C@@H](NC(=O)OC(C)(C)C)c4ccccc4)C[C@@](O)([C@@H](OC(=O)c4ccccc4)[C@H]21)C3(C)C` [docetaxel]: the tumor regression entry in data set [10] (optimal dose 10 mg/kg/week) is on record as “tumor regression”; in data set [10] (suboptimal dose 0.1 mg/kg/week), “not suboptimal”; in the data set with PTEN-CaP2-luc tumor (setting [14]), “tumor regression”; in the data set on PTEN-CaP2-luc tumor (suboptimal dose 0.1 mg/kg/week), “not suboptimal”. For the same compound, the metastatic lesions entry in data set [11] is recorded as “fewer metastatic lesions”. Besides, the “toxicities (elevated AST & ALT, hypocalcemia and hypoglycemia)” value in [12] is listed as “significantly higher toxicities”.

Turning to `O=C1[O][Pt]2([NH][C@@H]3CCCC[C@H]3[NH]2)[O]C1=O` [oxaliplatin], the tumor regression entry in data set [10] (optimal dose 10 mg/kg/week) is reported as “tumor regression”; in data set [10] (suboptimal dose 0.1 mg/kg/week), “not suboptimal”; in the data set with PTEN-CaP2-luc tumor (setting [14]), “tumor regression”; with PTEN-CaP2-luc tumor (suboptimal dose 0.1 mg/kg/week), “not suboptimal”. Moreover, the metastatic lesions result in data set [11] was “fewer metastatic lesions”. Also, the neuroendocrine differentiation entry in data set [11] (mouse, in vivo) was “reduced”. Besides, the “toxicities (elevated AST & ALT, hypocalcemia and hypoglycemia)” value in data set [13] was “significantly higher toxicities”.
